According to US20060165683A1, “Methods and compositions for control of bone formation via modulation of sympathetic tone” (priority 2001, published 2006):

B1: leptin: polypeptide hormone, product of the ob gene; human leptin (Sigma) infused ICV (protein)
chain: VPIQKVQDDTKTLIKTIVTRINDISHTQSVSAKQRVTGLDFIPGLHPILSLSKMDQTLAVYQQVLTSLPSQNVLQIANDLENLRDLLHLLAFSKSCSLPQTSGLQKPESLDGVLEASLYSTEVVALSRLQGSLQDILQQLDVSPEC

Assays:
ob/ob mice [1] = test: Long-term isoproterenol treatment of ob/ob mice; format: in vivo, mouse
Protocol: Wildtype (C57BL/6J) and mutant (C57BL/6J A^y/a, C57BL/6J ob/ob) mice were obtained from the Jackson laboratory and adrenal medullectomized mice from Harlan Tecklad laboratory. Dbh−/− mice were rescued as previously described (Thomas et al., 1998, Neurochem 70:2468-2476). […] Propranolol (Sigma) was added to the drinking water at a concentration of 0.5 g/l. For ICV infusion, a 28-gauge cannula (Brain infusion kit II, Alza) was implanted into the third ventricle as previously described infusing human leptin (Sigma) at 8 ng/hr or MT-II at 125 ng/hr (Phoenix Pharmaceuticals) for 28 days (see, e.g., Ducy et al., 2000, Cell 100: 197-207). The cannula was connected to an osmotic pump (Alza) placed in the dorsal subcutaneous space of the animal. For parabiosis longitudinal incisions were made in the skin and in the peritoneal cavity along one side on each mouse. Edges of the incisions were connected by suture to induce coelioanastomosis. Cross-circulation was quantified by injecting 1 ml/kg 0.25% Evans blue into the tail vein of one mouse of the parabiosed pair. After 30 min. blood was collected from both mice by retroorbital bleeding and the blood exchange rate was calculated according to standard techniques (see, e.g., Harris & Martin, 1984, Am J Physiol 247:R380-386). […] Two weeks after parabiosis a pump delivering leptin ICV in one animal of each pair was implanted. For GTG lesioning, 4-week-old C57BL/6J mice were given a single ip injection of either PBS or GTG (0.5 mg/g). For MSG lesioning, 2 day-old C57BL/6J pups were injected daily subcutaneously with either PBS or MSG (2 mg/g) for 10 days.
Histological analyses were performed on undecalcified sections stained by von Kossa and counterstained by von Gieson (see, e.g., Ducy et al., 2000, Cell 100:197-207). Static and dynamic histomorphometric analyses were performed according to standard protocols (see, e.g., Parfitt et al., 1987, J Bone Miner Res 6:595-610) using the Osteomeasure Analysis System (Osteometrics, Atlanta). Six to 12 animals were analyzed for each group. Statistical significance was assessed by Student's t test.
Primary osteoblast cultures were established as previously described (see, e.g., Ducy et al., 2000, Cell 100: 197-207) and maintained in αMEM/0.1 mg/ml ascorbic acid supplemented with 10% FBS. SaOS-2 were grown in MEM/10% FBS. For cAMP assay confluent cultures were incubated with serum free medium containing 100 μM IBMX (3-isobutyl-1-methylxanthine, Sigma) for 8 minutes before PBS, PTH(1-34) (Bachem), isoproterenol, norepinephrine, phenylephrine (Sigma) or propranolol were added for 5 min. Intracellular cAMP concentration was measured by immunoassay (R&D Systems). For gene expression analyses, primary osteoblasts were treated for 72 hours with appropriate drugs in 0.1% FBS. Hormone serum levels were quantified using immunoassays kits from Peninsula Laboratories (Insulin) or Alpco Diagnostics (leptin). Deoxypyridinoline cross-links and Creatinine were measured in morning urines using the Quidel kits. a1(I) leptin bioactivity was verified by cotransfection of 293 cells expressing ObRb with a STAT3-responsive-luc reporter construct, pSVβgal plasmid and a1(I) leptin expression vector or mock. Twenty-four hours later luciferase and β-galactosidase activities were measured. Data represents ratios of luciferase/β-galactosidase activities, and values are mean of 6 independent transfection experiments.
To address this point one month-old ob/ob mice were treated for 6 weeks with the β-adrenergic agonist isoproterenol or vehicle.

ob/ob mice [2] = test: Intracerebroventricular infusion of leptin in ob/ob mice; format: in vivo, mouse
Protocol: Lastly, the issue of whether leptin binding to its hypothalamic receptor could correct the high bone mass phenotype of the ob/ob mice as it can rescue their obesity phenotype was addressed. To that end pumps delivering either PBS or leptin (8 ng/hr) in the third ventricle of ob/ob mice were inserted as follows. Animals were anesthetized with avertin and placed on a stereotaxic instrument (Stoelting). The Calabria was exposed and a 0.7 mm hole was drilled upon bregma. A 28-gauge cannula (Brain infusion kit U, Alza) was implanted into the third ventricle according to the following coordinates: midline, −0.3 AP, 3 mm ventral (0 point bregma). The cannula was secured to the skull with cyanoacrylate, and attached with Tygon tubing to an osmotic pump (Alza) placed in the dorsal subcutaneous space of the animal. The rate of delivery was 0.25 μl/hour (8 ng/hr of leptin (Sigma)) or PBS for 28 days. The dosage has been previously shown to have no effect when administered systemically (Halaas et al., 1997, Proc Nati Acad Sci USA 94:8878-8883). To be as close as possible to the biological situation of the ob/ob mice, the animals in which pumps were inserted were ovariectomized to avoid any artificial increase in bone mass due to the correction of their hypogonadism. The pumps were left in place for 28 days and double-labeling with calcein was performed to measure the bone formation parameters.

[3] = ob/ob mice, 3 mg/kg/day, 6 weeks
[4] = ob/ob mice, ICV 8 ng/hr, 28 days

Row | Molecule | Bone Volume (ob/ob mice [1]; ob/ob + isoproterenol) | expression of uncoupling protein 1 (Ucp1) in brown adipose tissue (ob/ob mice [1]; ob/ob mice) | bone formation rate (ob/ob mice [1]; [3]) | bone resorption parameters (ob/ob mice [1]; [3]) | number of osteoblasts per bone surface (ob/ob mice [1]; [3]) | bone mass and bone formation parameters compared with 3 mg/kg/day (ob/ob mice [1]; ob/ob mice, 10 mg/kg/day) | body weight (ob/ob mice [1]; ob/ob mice, 3 and 10 mg/kg/day) | bone mass in the vertebrae and long bones (ob/ob mice [1]; one month-old ob/ob mice, 3 mg/kg/day ip, 6 weeks) | leptin in the serum (radioimmunoassay) (ob/ob mice [2]; ob/ob mice after ICV infusion) | Bone Volume (ob/ob mice [2]; [4]) | bone formation rates (ob/ob mice [2]; [4]) | trabeculae thickness (ob/ob mice [2]; [4]) | bone appearance (classical histology) (ob/ob mice [2]; ovariectomized ob/ob mice, third ventricle, 8 ng/hr, 28 days, vs PBS)
1 | CC(C)NCC(O)c1ccc(O)c(O)c1 (stereo not shown) [isoproterenol] | Low | increased | marked decrease | unaffected | marked decrease | Identical results | without affecting | massive bone loss |  |  |  |  | 
2 | B1 |  |  |  |  |  |  |  |  | No leptin in the serum of these animals was detected | significantly decreased | significantly decreased | significantly decreased | regained a normal appearance
